Source: patent US20260263384A1, “TRANSDERMAL ELLECTRICALLY CONDUCTIVE PATCH” (KIKKOMAN CORPORATION, priority 2023, published 2026)
Where a name gives a salt, the structure may show the parent alone.

What was measured:
[1] = tested on: skin-mimicking three-dimensional epidermal models (EPI-MODEL12, J-TEC); assay: Evaluation of electro-osmosis (electro-permeation): drug permeation through three-dimensional epidermal model into reservoir solution with vs without electric current (permeation evaluation system 1), HPLC; conditions: ketoprofen solution pH 6.6, 20 μA for 2 hours
Protocol: A specific method for evaluating drug permeation into the skin is described. A 7 mm×7 mm carbon cloth is coated with 80 µl of a solution of multi-walled carbon nanotubes in two separate instances and dried at 60° C. The carbon cloth is washed with pure water and further dried to prepare an electrode to be provided directly on cells. Skin-mimicking three-dimensional epidermal models (EPI-MODEL12, J-TEC) are used as the cells. Phosphate-buffered saline (PBS) is used as a reservoir solution. An Ag/AgCl electrode is introduced into the reservoir solution. Subsequently, each electrode is electrically connected to a […] source meter. A drug is dissolved in an appropriate solution. The drug solution of 400 µl is added dropwise to the cells, and the carbon cloth electrode is soaked therein. First, an electrode on the cells is connected to the positive electrode, and the Ag/AgCl electrode on the reservoir solution side is connected to the negative electrode. […] In the same manner, comparative experiment of adding 400 µl of the same drug solution dropwise to the cells is performed without the application of the electric current. […] Analysis can be performed by HPLC analysis, mass analysis, or other means. The amount of permeation with the application of the electric current is compared with that without the application of the electric current. […]

[2] = cited from earlier work

amount of permeation compared with a system without applying an electric current (100%) ([1]; electrode on the cells connected to positive electrode) [%] | amount of permeation relative to that measured in a system without applying an electric current (100%) ([1]; reversed direction, electrode on the cells connected to negative electrode) [%] | SMILES | pKa [2]
306 | 231 | CC(C(=O)O)c1cccc(C(=O)c2ccccc2)c1 (stereo not drawn) [ketoprofen] | 
 |  | CCCCNc1ccc(C(=O)OCCN(C)C)cc1 [tetracaine hydrochloride] | 8.4
